Values after ≈ are worked out from the molar mass of the structure shown. Where two headings read alike, the source gives them in different places.
How the values were obtained:
[1] = system: Gram-positive Staphylococcus aureus (S. aureus) 29213; test: Antibacterial activity, microbroth dilution MIC, S. aureus 29213; type: cell-based; conditions: Staphylococcus aureus; S. aureus 29213, microbroth dilution; read-out: MIC, 29213
[2] = system: quinolone resistant E. coli LZ3111; test: Antibacterial activity, MIC, quinolone resistant E. coli LZ3111; type: cell-based, Escherichia coli; conditions: Escherichia coli, read-out: MIC, LZ3111
From the text: The antibacterial activity from a microbroth dilution method may be presented as the minimum inhibitory concentration (MIC in […]). The MIC value is the lowest concentration of a drug which prevents macroscopically visible bacterial growth under test conditions.
Mutations in these regions are known to confer a high level resistance to the quinolone class of antibiotics.

[3] = system: super sensitive Gram-negative Escherichia coli (E. coli) BAS849; test: Antibacterial activity, microbroth dilution MIC, E. coli BAS849; type: cell-based; conditions: Escherichia coli, read-out: MIC, BAS849
[4] = system: control Gram-negative E. coli 25922 strain; test: Antibacterial activity, microbroth dilution MIC, E. coli 25922; type: cell-based, Escherichia coli; conditions: Escherichia coli; E. coli 25922, microbroth dilution; read-out: MIC, 25922
[5] = E. coli BAS849, microbroth dilution

| SMILES | MIC [1] [µg/mL] | MIC [2] [µg/mL] | MIC [3, 5] [µg/mL] | MIC [4] [µg/mL] | MIC [3] [µg/mL] |
| --- | --- | --- | --- | --- | --- |
| CCc1c(-c2ccc(OC)c(OC)c2OC)[nH]c(=O)c(C(=O)O)c1O [Cpd 42, 5-ethyl-4-hydroxy-2-oxo-6-(2,3,4-trimethoxyphenyl)-1,2-dihydropyridine-3-carboxylic acid] | 1 to 3.5 (≈ 2.86 to 10 µM) | 12.5 to 150 (≈ 35.8 to 429 µM) | < 1 | 12.5 to 150 (≈ 35.8 to 429 µM) |  |
| CCc1c(-c2ccc(N3CCCCC3)cc2F)[nH]c(=O)c(C(=O)O)c1O [Cpd 44, 5-ethyl-6-[2-fluoro-4-(piperidin-1-yl)phenyl]-4-hydroxy-2-oxo-1,2-dihydropyridine-3-carboxylic acid] | 1 to 3.5 (≈ 2.77 to 9.71 µM) | 12.5 to 150 (≈ 34.7 to 416 µM) | 1 to 3.5 (≈ 2.77 to 9.71 µM) | 12.5 to 150 (≈ 34.7 to 416 µM) |  |
| CCc1c(-c2ccc(N3CCCC3)cc2OC)[nH]c(=O)c(C(=O)O)c1O [Cpd 45, 5-ethyl-4-hydroxy-6-[2-methoxy-4-(pyrrolidin-1-yl)phenyl]-2-oxo-1,2-dihydropyridine-3-carboxylic acid] | 3.5 to 12.5 (≈ 9.77 to 34.9 µM) | 12.5 to 150 (≈ 34.9 to 419 µM) | 3.5 to 12.5 (≈ 9.77 to 34.9 µM) | 12.5 to 150 (≈ 34.9 to 419 µM) |  |
| CCc1c(-c2ccc(N3CCCCC3)cc2OC)[nH]c(=O)c(C(=O)O)c1O [Cpd 49, 5-ethyl-4-hydroxy-6-[2-methoxy-4-(piperidin-1-yl)phenyl]-2-oxo-1,2-dihydropyridine-3-carboxylic acid] | 3.5 to 12.5 (≈ 9.4 to 33.6 µM) | 12.5 to 150 (≈ 33.6 to 403 µM) | 3.5 to 12.5 (≈ 9.4 to 33.6 µM) | 12.5 to 150 (≈ 33.6 to 403 µM) |  |
| CCc1cc(C(=O)O)c(=O)[nH]c1-c1ccc(N2CCCC2)cc1OC [Cpd 50, 5-ethyl-6-[2-methoxy-4-(pyrrolidin-1-yl)phenyl]-2-oxo-1,2-dihydropyridine-3-carboxylic acid] | 12.5 to 150 (≈ 36.5 to 438 µM) | 12.5 to 150 (≈ 36.5 to 438 µM) | 12.5 to 150 (≈ 36.5 to 438 µM) | 12.5 to 150 (≈ 36.5 to 438 µM) |  |
| CCc1c(-c2ccc(N(C)C)cc2F)[nH]c(=O)c(C(=O)O)c1O [Cpd 55, 6-[4-(dimethylamino)-2-fluorophenyl]-5-ethyl-4-hydroxy-2-oxo-1,2-dihydropyridine-3-carboxylic acid] | 3.5 to 12.5 (≈ 10.9 to 39 µM) | 12.5 to 150 (≈ 39 to 468 µM) | < 1 | 12.5 to 150 (≈ 39 to 468 µM) |  |
| CCc1cc(C(=O)O)c(=O)[nH]c1-c1ccc(N2CCCCC2)c(OC)c1 [Cpd 68, 5-ethyl-6-[3-methoxy-4-(piperidin-1-yl)phenyl]-2-oxo-1,2-dihydropyridine-3-carboxylic acid] | 12.5 to 150 (≈ 35.1 to 421 µM) | 12.5 to 150 (≈ 35.1 to 421 µM) | 12.5 to 150 (≈ 35.1 to 421 µM) | 12.5 to 150 (≈ 35.1 to 421 µM) |  |
| CCc1c(-c2ccc(N3CCOCC3)cn2)[nH]c(=O)c(C(=O)O)c1O [Cpd 112, 5-ethyl-4-hydroxy-6-(5-morpholinopyridin-2-yl)-2-oxo-1,2-dihydropyridine-3-carboxylic acid] | 12.5 to 150 (≈ 36.2 to 434 µM) | 12.5 to 150 (≈ 36.2 to 434 µM) | < 1 | 12.5 to 150 (≈ 36.2 to 434 µM) |  |
| CCc1c(-c2ccc(N3CCNCC3)cn2)[nH]c(=O)c(C(=O)O)c1O [Cpd 113, 5-ethyl-4-hydroxy-2-oxo-6-[5-(piperazin-1-yl)pyridin-2-yl]-1,2-dihydropyridine-3-carboxylic acid] | 12.5 to 150 (≈ 36.3 to 436 µM) | 12.5 to 150 (≈ 36.3 to 436 µM) | 3.5 to 12.5 (≈ 10.2 to 36.3 µM) | 3.5 to 12.5 (≈ 10.2 to 36.3 µM) |  |
| CCc1cc(C(=O)O)c(=O)[nH]c1-c1ccc(N2C(=O)CCC2C)cc1 (centres unmarked) [Cpd 116, 5-ethyl-6-[4-(2-methyl-5-oxopyrrolidin-1-yl)phenyl]-2-oxo-1,2-dihydropyridine-3-carboxylic acid] | 12.5 to 150 (≈ 36.7 to 441 µM) | 12.5 to 150 (≈ 36.7 to 441 µM) | 12.5 to 150 (≈ 36.7 to 441 µM) | 12.5 to 150 (≈ 36.7 to 441 µM) |  |
| CCc1cc(C(=O)O)c(=O)[nH]c1-c1ccc(N2CC[C@H](O)C2=O)cc1 [Cpd 117, 5-ethyl-6-{4-[(3S)-3-hydroxy-2-oxopyrrolidin-1-yl]phenyl}-2-oxo-1,2-dihydropyridine-3-carboxylic acid] | 12.5 to 150 (≈ 36.5 to 438 µM) | 12.5 to 150 (≈ 36.5 to 438 µM) | 12.5 to 150 (≈ 36.5 to 438 µM) | 12.5 to 150 (≈ 36.5 to 438 µM) |  |
| CCc1cc(C(=O)O)c(=O)[nH]c1-c1ccc(N2C[C@@H](N)[C@@H](OC)C2)cc1.Cl [Cpd 135, 6-{4-[(3R,4S)-3-amino-4-methoxypyrrolidin-1-yl]phenyl}-5-ethyl-2-oxo-1,2-dihydropyridine-3-carboxylic acid hydrochloride] | 12.5 to 150 | 12.5 to 150 | < 1 | 12.5 to 150 |  |
| CCc1cc(C(=O)O)c(=O)[nH]c1-c1ccc(N2C[C@@H](N)[C@@H](O)C2)cc1.O=C(O)C(F)(F)F [Cpd 136, 6-{4-[(3R,4S)-3-amino-4-hydroxypyrrolidin-1-yl]phenyl}-5-ethyl-2-oxo-1,2-dihydropyridine-3-carboxylic acid trifluoroacetate] | 12.5 to 150 | 12.5 to 150 |  | 12.5 to 150 | 1 to 3.5 |
| CCc1cc(C(=O)O)c(=O)[nH]c1-c1ccc(NCCN(C)C)cc1 [Cpd 159, 6-(4-{[2-(dimethylamino)ethyl]amino}phenyl)-5-ethyl-2-oxo-1,2-dihydropyridine-3-carboxylic acid] | 12.5 to 150 (≈ 37.9 to 455 µM) | 12.5 to 150 (≈ 37.9 to 455 µM) | 1 to 3.5 (≈ 3.04 to 10.6 µM) | 12.5 to 150 (≈ 37.9 to 455 µM) |  |
| CC(C)c1cc(C(=O)O)c(=O)[nH]c1-c1ccc(N(C)CCN(C)C)cc1 [Cpd 165, 6-(4-{[2-(dimethylamino)ethyl](methyl)amino}phenyl)-2-oxo-5-(propan-2-yl)-1,2-dihydropyridine-3-carboxylic acid] | 12.5 to 150 (≈ 35 to 420 µM) | 12.5 to 150 (≈ 35 to 420 µM) | 1 to 3.5 (≈ 2.8 to 9.79 µM) | 12.5 to 150 (≈ 35 to 420 µM) |  |
| CCc1cc(C(=O)O)c(=O)[nH]c1-c1ccc(N2CCC(C)(N)C2)cc1.O=C(O)C(F)(F)F (centres unmarked) [Cpd 166, 6-[4-(3-amino-3-methylpyrrolidin-1-yl)phenyl]-5-ethyl-2-oxo-1,2-dihydropyridine-3-carboxylic acid trifluoroacetate] | 12.5 to 150 | 12.5 to 150 |  | 3.5 to 12.5 | < 1 |
| CCc1cc(C(=O)O)c(=O)[nH]c1-c1ccc(N2CC(NC(=O)N(C)CC(=O)O)C2)cc1 [Cpd 167, 6-[4-(3-{[(carboxymethyl)(methyl)carbamoyl]amino}azetidin-1-yl)phenyl]-5-ethyl-2-oxo-1,2-dihydropyridine-3-carboxylic acid] | 12.5 to 150 (≈ 29.2 to 350 µM) | 12.5 to 150 (≈ 29.2 to 350 µM) | 1 to 3.5 (≈ 2.33 to 8.17 µM) | 12.5 to 150 (≈ 29.2 to 350 µM) |  |
| CCc1cc(C(=O)O)c(=O)[nH]c1-c1ccc(N2CC(n3nnc(C)n3)C2)cc1 [Cpd 168, 5-ethyl-6-{4-[3-(5-methyl-2H-tetrazol-2-yl)azetidin-1-yl]phenyl}-2-oxo-1,2-dihydropyridine-3-carboxylic acid] | 12.5 to 150 (≈ 32.9 to 394 µM) | 12.5 to 150 (≈ 32.9 to 394 µM) | < 1 | 12.5 to 150 (≈ 32.9 to 394 µM) |  |
| CCc1cc(C(=O)O)c(=O)[nH]c1-c1ccc(N2CC3CC3(N)C2)cc1.Cl (centres unmarked) [Cpd 169, 6-[4-(1-amino-3-azabicyclo[3.1.0]hex-3-yl)phenyl]-5-ethyl-2-oxo-1,2-dihydropyridine-3-carboxylic acid hydrochloride] | 12.5 to 150 | 12.5 to 150 | < 1 | 1 to 3.5 |  |
| CCc1cc(C(=O)O)c(=O)[nH]c1-c1ccc(N2CCC(N3CCCC3)C2)cc1 (centres unmarked) [Cpd 175, 6-[4-(1,3′-bipyrrolidin-1′-yl)phenyl]-5-ethyl-2-oxo-1,2-dihydropyridine-3-carboxylic acid] | 12.5 to 150 (≈ 32.8 to 393 µM) | 12.5 to 150 (≈ 32.8 to 393 µM) | < 1 | 1 to 3.5 (≈ 2.62 to 9.17 µM) |  |
| CCc1cc(C(=O)O)c(=O)[nH]c1-c1ccc(N2CCC(CNC)C2)cc1.Cl (centres unmarked) [Cpd 184, 5-ethyl-6-(4-{3-[(methylamino)methyl]pyrrolidin-1-yl}phenyl)-2-oxo-1,2-dihydropyridine-3-carboxylic acid hydrochloride] | 12.5 to 150 | 12.5 to 150 | 1 to 3.5 | 12.5 to 150 |  |
| CCc1cc(C(=O)O)c(=O)[nH]c1-c1ccc(N2CCC(CN)C2)cc1.O=C(O)C(F)(F)F (centres unmarked) [Cpd 188, 6-{4-[3-(aminomethyl)pyrrolidin-1-yl]phenyl}-5-ethyl-2-oxo-1,2-dihydropyridine-3-carboxylic acid trifluoroacetate] | 12.5 to 150 | 12.5 to 150 |  | 3.5 to 12.5 | < 1 |
| CCc1cc(C(=O)O)c(=O)[nH]c1-c1ccc(N2C[C@H]3CCN[C@H]3C2)cc1.O=C(O)C(F)(F)F [Cpd 190, 5-ethyl-6-{4-[(3aR,6aR)-hexahydropyrrolo[3,4-b]pyrrol-5(1H)-yl]phenyl}-2-oxo-1,2-dihydropyridine-3-carboxylic acid trifluoroacetate] | 12.5 to 150 | 12.5 to 150 |  | 12.5 to 150 | 1 to 3.5 |
| CCc1cc(C(=O)O)c(=O)[nH]c1-c1ccc(N2CCC(CN3CCCC3)C2)cc1 (centres unmarked) [Cpd 191, 5-ethyl-2-oxo-6-{4-[3-(pyrrolidin-1-ylmethyl)pyrrolidin-1-yl]phenyl}-1,2-dihydropyridine-3-carboxylic acid] | 12.5 to 150 (≈ 31.6 to 379 µM) | 12.5 to 150 (≈ 31.6 to 379 µM) | < 1 | 1 to 3.5 (≈ 2.53 to 8.85 µM) |  |
| CCc1cc(C(=O)O)c(=O)[nH]c1-c1ccc(N2C[C@H]3CCC[C@@H](N(C)C)[C@H]3C2)cc1.Cl [Cpd 193, 6-{4-[(3aR,4R,7aS)-4-(dimethylamino)octahydro-2H-isoindol-2-yl]phenyl}-5-ethyl-2-oxo-1,2-dihydropyridine-3-carboxylic acid hydrochloride] | 12.5 to 150 | 12.5 to 150 | 1 to 3.5 | 12.5 to 150 |  |
| CCc1cc(C(=O)O)c(=O)[nH]c1-c1ccc(N2C[C@H]3CCC[C@@H](N(C)Cc4ccccc4)[C@H]3C2)cc1.O=C(O)C(F)(F)F [Cpd 194, 6-(4-{(3aR,4R,7aS)-4-[benzyl(methyl)amino]octahydro-2H-isoindol-2-yl}phenyl)-5-ethyl-2-oxo-1,2-dihydropyridine-3-carboxylic acid trifluoroacetate] | 3.5 to 12.5 | 12.5 to 150 |  | 12.5 to 150 | 1 to 3.5 |

Source: US9650395B2, “Antibacterial compounds and methods for use” (PTC Therapeutics, Inc., priority 2011, dated 2017)
